# Assay results as given in patent publication US12201610B2, “Compositions comprising aticaprant” (Janssen Pharmaceuticals, Inc., priority 2022, dated 2025).
# Read-outs that look alike come from different tables or passages of the source.
# Tests used:
# subjects with MDD = assay: SIGH-A score (Example 6); type: in vivo, human; details: 10 mg; Treatment Week 6; 59 subjects analyzed
# Source text: v. To investigate the effect of aticaprant on symptoms of anxiety using the HAM-A and on core symptoms of anxiety using the HAM-A6 subscale.
# • (i) Depression: Montgomery-Åsberg Depression Rating Scale (MADRS), Clinical Global Impression-Severity (CGI-S), Symptoms of Major Depressive Disorder Scale (SMDDS), and Self-assessment of treatment experience (SATE) • (ii) Anhedonia: Snaith-Hamilton Pleasure Scale (SHAPS) • (iii) Anxiety: Structured Interview Guide for the Hamilton Anxiety scale (SIGH-A) and HAM-A6 • (iv) Effects on Cognition: The Cognitive and Physical Functioning Questionnaire (CPFQ) • (v) Safety assessments
# [1] = Phase 1 PK Part 1: relative bioavailability, dose proportionality, food effect of unmilled API tablet; type: in vivo, human; details: for Tmax: median
# Description: This is a Phase 1, open-label, single dose, multicenter, 4-part study in healthy adult participants.
# Potential participants will be screened from Day −28 to Day −2 to determine participants' eligibility for study participation. For Part 1, qualified participants will be admitted on Day −1 of each treatment period and will remain in-house for the total duration of the treatment (Day −1 until Day 5, with single-dose treatment on Day 1 and 96 hours of PK), whereas for Part 2, PK sampling will be done up to 120 hours (Day 6). Each dosed participant will have a safety follow-up on Day 10 to Day 14 after last dose of the study intervention.
# The Part 1 of the study involves determination of relative bioavailability for tablet (Formulation Concept 1, i.e., unmilled aticaprant formulation, see Table 10) and capsule formulations (see Example 6, study design, for description of capsule formulation) and dose proportionality and food effect for tablet formulation (Formulation Concept 1) in healthy adult participants (FIG. 25). Part 1 will consist of Subpart 1A and Subpart 1B consisting of a total of 4 periods. […] Participants will be assigned to 1 of 6 treatment sequences (Table 51) and will be administered the 3 treatments in a 3-way crossover. The same 24 participants who complete Subpart 1A will be enrolled in Subpart 1B. Subpart 1B consists of a fourth period to evaluate the food effect of a single dose of 10 mg aticaprant administered as 1×10 mg oral tablet (Formulation Concept 1) under fed conditions (Treatment D; Table 50 and Table 52). A preliminary PK analysis will be conducted at the end of the food effect part (Subpart 1B) for all the periods from Part 1 and will include the food effect data.
# Secondary Objectives: • To assess the safety and tolerability of oral doses of aticaprant in healthy adult participants. Part 2
# For each individual participant, there will be a washout period of at least 7 days for Part 1 and at least 8 days for Part 2 between subsequent intakes of the study intervention. Day 1 of a treatment period (day of study intervention intake) is the first day of the washout period (also in between the study parts, if applicable).
# Participants will be fasting in Part 1A and Part 2A. Participants will have been fed in Parts 1B and 2B. For a fasted condition, participants will fast (nothing to cat or drink except noncarbonated water) overnight for at least 10 hours before and until 4 hours after study intervention administration during each fasted treatment period. Approximately, 4 hours post-dose and after the 4-hour PK sampling, a standard lunch will be served at the study-site. Intake of water is allowed until 2 hours before the intake of the study intervention. Thereafter, water intake is only allowed for study intervention intake and for breakfast, if applicable. Drinking of water is allowed ad libitum from approximately 2 hours after dosing. For a fed condition, participants will consume, after an overnight fast (at least 10 hours), a standardized high-fat breakfast within a 20-minute period. […] Study intervention will be administered approximately 30 minutes after the start of the breakfast.
# In Parts 1 and 2, plasma concentrations will be determined for aticaprant. Blood samples for determination of plasma concentrations of aticaprant will be collected predose and at the postdose time points starting on Day 1 as indicated in the Tables 57-58.
# The following plasma PK parameters of aticaprant will be determined. A noncompartmental model with extravascular input will be used for the pharmacokinetic analysis.
# Based on the individual concentration-time data, using the actual sampling times, the following PK parameters will be derived for aticaprant: […]
# [2] = Dose proportionality: C (Test, 5 mg tablet normalized to 10 mg) vs B (Reference, 10 mg tablet), fasting
# [3] = Food effect: Treatment D (high-fat breakfast, Test)/Treatment B (fasting, Reference), 10 mg Formulation Concept 1
# [4] = Relative BA: Treatment B (10 mg tablet, Test)/Treatment A (2 × 5 mg capsule, Reference), fasting
# [5] = Treatment A: 2 × 5 mg oral capsule, fasting, mean
# [6] = Treatment B: 1 × 10 mg Formulation Concept 1 (unmilled API tablet), fasting, mean
# [7] = Treatment C (1 × 5 mg Formulation Concept 1, fasting), 5 mg dose normalized to 10 mg, mean (SD)
# [8] = Treatment C: 1 × 5 mg Formulation Concept 1 (unmilled API tablet), fasting, mean
# [9] = Treatment D: 1 × 10 mg Formulation Concept 1 (unmilled API tablet), after high-fat breakfast, mean
# [10] = human, plasma, oral, 5 mg, Treatment C: 1 × 5 mg Formulation Concept 1 (unmilled API tablet), fasting, mean
# [11] = human, plasma, oral, 10 mg, Treatment B: 1 × 10 mg Formulation Concept 1 (unmilled API tablet), fasting, mean
# [12] = human, plasma, oral, 10 mg, Treatment D: 1 × 10 mg Formulation Concept 1 (unmilled API tablet), after high-fat breakfast, mean
# [13] = human, plasma, po, 10 mg, Treatment A: 2 × 5 mg oral capsule, fasting, mean
compound,measurement,setting,value
"Cc1cc(C)cc(C2CCCN2Cc2ccc(Oc3ccc(C(N)=O)cc3F)cc2)c1 (centres unmarked) [aticaprant, 3-fluoro-4-4-2-(3,5-dimethylphenyl)pyrrolidin-1-yl-methylphenoxybenzamide]","Change from Treatment Baseline in SIGH-A score, Arithmetic Mean (SD)",subjects with MDD,−5.85 ± 5.369 scores on a scale
same,Geometric Mean Cmax,"[1]; Dose proportionality, completers, Treatment B (Reference): 1 × 10 mg Formulation Concept 1, fasting",32.8 ng/mL
same,"Ratio of Geometric Means, AUClast",[1]; [2],103.20%
same,"Ratio of Geometric Means, AUC∞",[1]; [2],103.93%
same,"Ratio of Geometric Means, Cmax",[1]; [2],102.12%
same,Geometric Mean Cmax,"[1]; Food effect, completers, Treatment B (Reference): 1 × 10 mg Formulation Concept 1, fasting",32.6 ng/mL
same,"Ratio of Geometric Means, AUClast",[1]; [3],144.01%
same,"Ratio of Geometric Means, AUC∞",[1]; [3],143.84%
same,"Ratio of Geometric Means, Cmax",[1]; [3],112.49%
same,Geometric Mean Cmax,"[1]; Relative BA, completers, Treatment B (Test): 1 × 10 mg Formulation Concept 1, fasting",32.8 ng/mL
same,"Ratio of Geometric Means, AUClast",[1]; [4],93.31%
same,"Ratio of Geometric Means, AUC∞",[1]; [4],94.14%
same,"Ratio of Geometric Means, Cmax",[1]; [4],108.64%
same,CL/F,[1]; [5],34.5 L/h
same,Λz,[1]; [5],0.030 h⁻¹
same,CL/F,[1]; [6],36.2 L/h
same,Cmax,[1]; [6],34.1 ng/mL
same,Λz,[1]; [6],0.029 h⁻¹
same,"AUClast, C Dose Normalized",[1]; [7],286 (79.7) h * ng/mL
same,"AUC∞, C Dose Normalized",[1]; [7],309 (86.4) h * ng/mL
same,"Cmax, C Dose Normalized",[1]; [7],33.9 (8.97) ng/mL
same,CL/F,[1]; [8],35.8 L/h
same,Λz,[1]; [8],0.035 h⁻¹
same,CL/F,[1]; [9],25.0 L/h
same,Λz,[1]; [9],0.031 h⁻¹
same,AUC(0-t),"[1]; human, plasma, oral, 5 mg, Dose proportionality, completers, Treatment C (Test): 1 × 5 mg Formulation Concept 1, fasting, 5 mg dose normalized to 10 mg, read-out: Geometric Mean AUClast",280 ng·h/mL
same,AUC(0-inf),"[1]; human, plasma, oral, 5 mg, Dose proportionality, completers, Treatment C (Test): 1 × 5 mg Formulation Concept 1, fasting, 5 mg dose normalized to 10 mg, read-out: Geometric Mean AUC∞",299 ng·h/mL
same,Vd/F,[1]; [10],1150 L
same,half-life,[1]; [10],24.7 h
same,AUC(0-t),"[1]; human, plasma, oral, 5 mg, Treatment C: 1 × 5 mg Formulation Concept 1 (unmilled API tablet), fasting, mean, read-out: AUClast",143 ng·h/mL
same,AUC(0-inf),"[1]; human, plasma, oral, 5 mg, Treatment C: 1 × 5 mg Formulation Concept 1 (unmilled API tablet), fasting, mean, read-out: AUC∞",155 ng·h/mL
same,Cmax,"[1]; human, plasma, oral, 5 mg, Treatment C: 1 × 5 mg Formulation Concept 1 (unmilled API tablet), fasting, mean, read-out: Cmax",17 ng/mL
same,Tmax,"[1]; human, plasma, oral, 5 mg, Treatment C: 1 × 5 mg Formulation Concept 1 (unmilled API tablet), fasting",1.5 h
same,AUC(0-t),"[1]; human, plasma, oral, 10 mg, Dose proportionality, completers, Treatment B (Reference): 1 × 10 mg Formulation Concept 1, fasting, read-out: Geometric Mean AUClast",271 ng·h/mL
same,AUC(0-inf),"[1]; human, plasma, oral, 10 mg, Dose proportionality, completers, Treatment B (Reference): 1 × 10 mg Formulation Concept 1, fasting, read-out: Geometric Mean AUC∞",287 ng·h/mL
same,AUC(0-t),"[1]; human, plasma, oral, 10 mg, Food effect, completers, Treatment B (Reference): 1 × 10 mg Formulation Concept 1, fasting, read-out: Geometric Mean AUClast",270 ng·h/mL
same,AUC(0-inf),"[1]; human, plasma, oral, 10 mg, Food effect, completers, Treatment B (Reference): 1 × 10 mg Formulation Concept 1, fasting, read-out: Geometric Mean AUC∞",287 ng·h/mL
same,AUC(0-t),"[1]; human, plasma, oral, 10 mg, Food effect, completers, Treatment D (Test): 1 × 10 mg Formulation Concept 1, after high-fat breakfast, read-out: Geometric Mean AUClast",388 ng·h/mL
same,AUC(0-inf),"[1]; human, plasma, oral, 10 mg, Food effect, completers, Treatment D (Test): 1 × 10 mg Formulation Concept 1, after high-fat breakfast, read-out: Geometric Mean AUC∞",413 ng·h/mL
same,Cmax,"[1]; human, plasma, oral, 10 mg, Food effect, completers, Treatment D (Test): 1 × 10 mg Formulation Concept 1, after high-fat breakfast, read-out: Geometric Mean Cmax",36.6 ng/mL
same,AUC(0-t),"[1]; human, plasma, oral, 10 mg, Relative BA, completers, Treatment B (Test): 1 × 10 mg Formulation Concept 1, fasting, read-out: Geometric Mean AUClast",271 ng·h/mL
same,AUC(0-inf),"[1]; human, plasma, oral, 10 mg, Relative BA, completers, Treatment B (Test): 1 × 10 mg Formulation Concept 1, fasting, read-out: Geometric Mean AUC∞",287 ng·h/mL
same,Vd/F,[1]; [11],1340 L
same,half-life,[1]; [11],26.6 h
same,AUC(0-t),"[1]; human, plasma, oral, 10 mg, Treatment B: 1 × 10 mg Formulation Concept 1 (unmilled API tablet), fasting, mean, read-out: AUClast",283 ng·h/mL
same,AUC(0-inf),"[1]; human, plasma, oral, 10 mg, Treatment B: 1 × 10 mg Formulation Concept 1 (unmilled API tablet), fasting, mean, read-out: AUC∞",301 ng·h/mL
same,Tmax,"[1]; human, plasma, oral, 10 mg, Treatment B: 1 × 10 mg Formulation Concept 1 (unmilled API tablet), fasting",1.5 h
same,Vd/F,[1]; [12],835 L
same,half-life,[1]; [12],24.5 h
same,AUC(0-t),"[1]; human, plasma, oral, 10 mg, Treatment D: 1 × 10 mg Formulation Concept 1 (unmilled API tablet), after high-fat breakfast, mean, read-out: AUClast",398 ng·h/mL
same,AUC(0-inf),"[1]; human, plasma, oral, 10 mg, Treatment D: 1 × 10 mg Formulation Concept 1 (unmilled API tablet), after high-fat breakfast, mean, read-out: AUC∞",425 ng·h/mL
same,Cmax,"[1]; human, plasma, oral, 10 mg, Treatment D: 1 × 10 mg Formulation Concept 1 (unmilled API tablet), after high-fat breakfast, mean, read-out: Cmax",37.7 ng/mL
same,Tmax,"[1]; human, plasma, oral, 10 mg, Treatment D: 1 × 10 mg Formulation Concept 1 (unmilled API tablet), after high-fat breakfast",2.75 h
same,AUC(0-t),"[1]; human, plasma, po, 10 mg, Relative BA, completers, Treatment A (Reference): 2 × 5 mg oral capsule, fasting, read-out: Geometric Mean AUClast",291 ng·h/mL
same,AUC(0-inf),"[1]; human, plasma, po, 10 mg, Relative BA, completers, Treatment A (Reference): 2 × 5 mg oral capsule, fasting, read-out: Geometric Mean AUC∞",305 ng·h/mL
same,Cmax,"[1]; human, plasma, po, 10 mg, Relative BA, completers, Treatment A (Reference): 2 × 5 mg oral capsule, fasting, read-out: Geometric Mean Cmax",30.2 ng/mL
same,Vd/F,[1]; [13],1250 L
same,half-life,[1]; [13],26.3 h
same,AUC(0-t),"[1]; human, plasma, po, 10 mg, Treatment A: 2 × 5 mg oral capsule, fasting, mean, read-out: AUClast",304 ng·h/mL
same,AUC(0-inf),"[1]; human, plasma, po, 10 mg, Treatment A: 2 × 5 mg oral capsule, fasting, mean, read-out: AUC∞",315 ng·h/mL
same,Cmax,"[1]; human, plasma, po, 10 mg, Treatment A: 2 × 5 mg oral capsule, fasting, mean, read-out: Cmax",31.2 ng/mL
same,Tmax,"[1]; human, plasma, po, 10 mg, Treatment A: 2 × 5 mg oral capsule, fasting",1.5 h
